Source: patent US20150238401A1, “PROPYL-PHENYL-ETHER DERIVATIVE, AND MELANOGENESIS INHIBITOR, SKIN-LIGHTENING AGENT, ANTIMICROBIAL AGENT AND COSMETIC CONTAINING SAID PROPYL-PHENYL-ETHER DERIVATIVE” (SEIWA KASEI COMPANY, LIMITED, priority 2012, published 2015)

Tests used:
B16 melanoma 4A5 cell = test: Melanogenesis inhibiting test (theophylline-induced melanine production); assay type: cell-based; conditions: B16 mouse melanoma 4A5, theophylline 1.0 mmol/L, 3 days culture, N=4; for IC40: B16 melanoma 4A5, 72 h, read-out: Judgment: sample concentration showing the melanogenesis inhibiting ratio of 40% or more
Procedure: As a test for a skin-lightening effect, evaluation of the action of B16 melanoma 4A5 cell on theophylline-induced melanine production was carried out on propyl-phenyl-ether derivatives of the present invention, according to the following procedure. (1) B16 mouse melanoma 4A5 strain was sowed onto a 48-well plate at a cell density of 8.0×10^3 cells/well. (2) Culturing was performed for 24 hours with Dulbecco's Modified Eagle's medium (manufactured by SIGMA. Hereinafter, abbreviated as D-MEM) containing 10% fetal bovine serum (manufactured by Nichirei Biosciences Inc.). […] (3) After culturing for 3 days in the co-existence of a sample, the medium was removed using an aspirator. Then, after distilled water was added, cells were broken by an ultrasonic wave. (4) Thereafter, the amount of protein was determined using BCA protein assay kit (manufactured by Thermo Fisher Scientific Inc.), and the produced amount of melanine was measured by an alkali solubilizing method described below. [Alkali Solubilizing Method] To the cell-destructed solution was added sodium hydroxide so as to give a final concentration of 1 mol/L and the mixture was dissolved by heating (60° C., 30 minutes), then, the absorbance at 450 nm was measured using a micro plate reader. The melanine amount was calculated from a calibration curve made using synthetic melanine (SIGMA) as a standard. The melanine amount per unit protein was calculated by dividing the melanine amount by the protein amount. (5) The melanine production suppressing rate was calculated according to the following formula. Melanine production suppressing rate (%)=[1−(A−B)/(C−B)]×100 [wherein, A represents the melanine amount per unit protein (g/g) in adding a sample, B represents the melanine amount per unit protein (g/g) in the normal group, and C represents the melanine amount per unit protein (g/g) in the control group.] In the above, Normal group is a case of theophylline (−; no addition) and sample (−; no addition), and Control group is a case of theophylline (+; addition) and sample (−; no addition). (6) Determination of Skin-Lightening Effect The amount of a sample required for adjusting the melanogenesis inhibiting ratio to 40% or more was measured, and the effect was evaluated by the following criteria based on the measured amount. The measurement was conducted at N=4 (4 wells per sample). The skin-lightening effect is expressed as described below based on the sample concentration showing the melanogenesis inhibiting ratio of 40% or more. The measurement was conducted at N=4.

[1] = test system: Propionibacterium acnes (JCM6415); test: Anti-acne test (growth in GAM bouillon medium, OD620); assay type: cell-based; conditions: sample final concentration 0.1%, 37° C., anaerobic, 48 hours
Procedure: Propionibacterium acnes (JCM6415: ATCC strain) was transplanted to GAM bouillon medium (manufactured by Nissui Pharmaceutical Co., Ltd.), and cultured at 37° C. under anaerobic condition for 24 hours. Thereafter, it was diluted with GAM bouillon medium so that the final bacterium concentration was OD620=0.1, and this was used as a test bacterium solution. In examples, the propyl-phenyl-ether derivative was weighed so that the final concentration was 0.1%, dissolved in GAM bouillon medium, then, filter-sterilization was performed. The resultant solution was used as a sample solution. The test bacterium solution was added in an amount of 30 μL and the sample solution was added in an amount of 120 μL to a 96-well microplate (manufactured by Sumitomo Bakelite Co., Ltd.), then, immediately, the micro plate and AnaeroPack-KENKI (manufactured by Mitsubishi Gas Chemical Co., Inc.) were placed into an anaerobic jar (manufactured by Mitsubishi Gas Chemical Co., Inc.), and culture was carried out at 37° C. under anaerobic condition for 48 hours. Thereafter, OD620 was measured by a microplate reader. The same test was conducted using methylparaben, phenoxyethanol and sodium ascorbate as comparative compounds.
The results are classified by the following criteria and shown in Table 5-Table 7. • Δ: OD620 is 0.6 or more • ◯: OD620 is 0.3-0.6 • ⊚: OD620 is 0.3 or less

SMILES | IC40 (B16 melanoma 4A5 cell) [µM] | Judgment: OD620 after culture [1] | Judgment: sample concentration showing the melanogenesis inhibiting ratio of 40% or more (B16 melanoma 4A5 cell)
CCOC(CO)COc1ccc(C(C)(C)C)cc1 (stereo not shown) [2-O-ethyl-1-hydroxy-3-(4′-tert-butylphenoxy)propyl] | ≤ 30 | ⊚⊚ | –
COC(=O)c1ccc(O)cc1 [Methylparaben, reference compound] | – | Δ (Δ: OD620 is 0.6 or more) | –
Cc1cc(OCC(O)CO)ccc1C(C)C (stereo not shown) [Example 31, 1,2-di-hydroxy-3-(3′-methyl-4′-isoproylphenoxy)propyl] | ≤ 30 | ⊚⊚ | –
CCOCC(O)COc1ccc(C(C)C)c(C)c1 (stereo not shown) [Example 29, 1-O-ethyl-2-hydroxy-3-(3′-methyl-4′-isoproylphenoxy)propyl] | ≤ 30 | ⊚⊚ | –
CCc1ccc(OCC(O)CO)cc1 (stereo not shown) [Example 14, 1,2-di-hydroxy-3-(4′-ethylphenoxy)propyl] | 100 to 300 | ⊚ (⊚: OD620 is 0.3 or less) | –
CCC(C)c1cccc(C(C)CC)c1OCC(O)CO (stereo not shown) [Example 19, 1,2-di-hydroxy-3-(2′,6′-di-sec-butylphenoxy)propyl] | ≤ 30 | ⊚⊚ | –
CC(C)(C)c1ccc(OCC(O)COc2ccc(C(C)(C)C)cc2)cc1 [Example 8, 2-hydroxy-1,3-di-(4′-tert-butylphenoxy)propyl] | ≤ 30 | ⊚⊚ | –
CC(C)(C)CC(C)(C)c1ccc(OCC(O)CO)cc1 (stereo not shown) [Example 17, 1,2-di-hydroxy-3-[4′-(1″,1″,3″,3″-tetramethylbutyl)phenoxy]propyl] | ≤ 30 | ⊚⊚ | –
CC(C)(C)c1ccc(OCC(O)COCC(O)COc2ccc(C(C)(C)C)cc2)cc1 (stereo not shown) [Example 10, di[2-hydroxy-3-(4′-tert-butylphenoxy)propyl]ether] | 100 to 300 | ⊚ (⊚: OD620 is 0.3 or less) | –
Cc1cc(C(C)(C)C)c(OCC(O)CO)c(C(C)(C)C)c1 (stereo not shown) [Example 22, 1,2-di-hydroxy-3-(2′,6′-di-tert-butyl-4′-methylphenoxy) propyl] | ≤ 30 | ⊚⊚ | –
O=C1O[C@H]([C@@H](O)CO)C([O-])=C1O.[Na+] [Sodium Ascorbate, reference compound] | – | Δ (Δ: OD620 is 0.6 or more) | –
CCOCC(O)COc1c(C(C)CC)cccc1C(C)CC (stereo not shown) [Example 30, 1-O-ethyl-2-hydroxy-3-(2′,6′-di-sec-butylphenoxy)propyl] | ≤ 30 | ⊚⊚ | –
CC(C)(C)c1ccc(OCC(O)CO)c(C(C)(C)C)c1 (stereo not shown) [Example 20, 1,2-di-hydroxy-3-(2′,4′-di-tert-butylphenoxy)propyl] | ≤ 30 | ⊚⊚ | –
CCCCC(CC)COCC(O)COc1ccccc1C(C)CC (stereo not shown) [Example 26, 1-O-(2″-ethylhexyl)-2-hydroxy-3-(2′-sec-butylphenoxy) propyl] | 30 to 100 | ⊚ (⊚: OD620 is 0.3 or less) | –
COc1ccc(OCC(O)CO)cc1C(C)(C)C (stereo not shown) [Example 24, 1,2-di-hydroxy-3-(3′-tert-butyl-4′-methoxylphenoxy)propyl] | 30 to 100 | ⊚ (⊚: OD620 is 0.3 or less) | –
CC(C)c1ccc(OCC(O)CO)cc1 (stereo not shown) [Example 13, 1,2-di-hydroxy-3-(4′-isopropylphenoxy)propyl] | 30 to 100 | ⊚ (⊚: OD620 is 0.3 or less) | –
CC(C)(C)c1ccc(OCC(O)COc2ccc(O)cc2)cc1 (stereo not shown) [Example 9, 1-(4″-hydroxyphenoxy)-2-hydroxy-3-(4′-tert-butylphenoxy)propyl] | 30 to 100 | ⊚ (⊚: OD620 is 0.3 or less) | –
CCC(C)(C)c1ccc(OCC(O)CO)cc1 (stereo not shown) [Example 15, 1,2-di-hydroxy-3-(4′-tert-amylphenoxy)propyl] | ≤ 30 | ⊚⊚ | –
CCCOc1ccc(C(C)(C)C)cc1 [Synthesis Example 1, 1-(4′-tert-butylphenoxy)propyl, reference compound] | ≥ 300 | Δ (Δ: OD620 is 0.6 or more) | –
CCOCC(O)COc1ccc(C(C)CC)cc1 (stereo not shown) [Example 4, 1-O-ethyl-2-hydroxy-3-(4′-sec-butylphenoxy)propyl] | – | ⊚ (⊚: OD620 is 0.3 or less) | ⊚ (30 to 100 μmol/L: ⊚)
CCOCC(O)COc1ccccc1C(C)CC (stereo not shown) [Example 27, 1-O-ethyl-2-hydroxy-3-(2′-sec-butylphenoxy)propyl] | 30 to 100 | ⊚ (⊚: OD620 is 0.3 or less) | –
COc1ccc(OCC(O)CO)c(C(C)(C)C)c1 (stereo not shown) [Example 23, 1,2-di-hydroxy-3-(2′-tert-butyl-4′-methoxylphenoxy)propyl] | 30 to 100 | ⊚ (⊚: OD620 is 0.3 or less) | –
CCCCc1ccc(OCC(O)CO)cc1 (stereo not shown) [Example 12, 1,2-di-hydroxy-3-(4′-n-butylphenoxy)propyl] | 30 to 100 | ◯ (◯: OD620 is 0.3-0.6) | –
CC(C)(c1ccc(OCC(O)CO)cc1)c1ccc(OCC(O)CO)cc1 (stereo not shown) [Example 25] | ≤ 30 | ⊚⊚ | –
CCOCC(O)COc1ccc(C(C)(C)c2ccc(OCC(O)COCC)cc2)cc1 (stereo not shown) [Example 32, 2,2-bis[4′-(1″-O-ethyl-2″-hydroxypropoxy)phenyl]propane] | ≤ 30 | ⊚⊚ | –
CC(O)COc1ccc(C(C)(C)C)cc1 (stereo not shown) [Example 2, 2-hydroxy-3-(4′-tert-butylphenoxy)propyl] | 30 to 100 | ⊚ (⊚: OD620 is 0.3 or less) | –
CC(C)(C)c1ccc(OCCCO)cc1 [Example 18, 1-hydroxy-3-(4′-tert-butylphenoxy)propyl] | 30 to 100 | ⊚ (⊚: OD620 is 0.3 or less) | –
OCC(O)COc1ccccc1 (stereo not shown) [Synthesis Example 3, 1,2-di-hydroxy-3-phenoxypropyl, reference compound] | ≥ 300 | Δ (Δ: OD620 is 0.6 or more) | –
CCOCC(O)COc1ccc(C(C)(C)CC(C)(C)C)cc1 (stereo not shown) [Example 33, 1-O-ethyl-2-hydroxy-3-[4′-(1″,1″,3″,3″-tetramethylbutyl)phenoxy]propyl] | 30 to 100 | ⊚ (⊚: OD620 is 0.3 or less) | –
Cc1cc(OCC(O)CO)c(C(C)(C)C)cc1C(C)(C)C (stereo not shown) [Example 21, 1,2-di-hydroxy-3-(2′,4′-di-tert-butyl-5′-methylphenoxy)propyl] | ≤ 30 | ⊚⊚ | –
